Results published in patent publication US20220145260A1, “METHOD FOR CULTURING HEPATIC EPITHELIOID TISSUE HAVING A STRUCTURE OF CONNECTIONS BETWEEN HEPATOCYTES AND BILE DUCT EPITHELIAL CELL” (SAPPORO MEDICAL UNIVERSITY, priority 2019, published 2022).

How the values were obtained:
[1] = system: hepatic epithelioid tissue (small hepatocytes and bile duct epithelial cells); test: Fluorescein diacetate uptake and flow into bile duct in hepatic epithelioid tissue; format: cell-based, mice; settings: hepatic epithelioid tissue 2 weeks after overlaying Matrigel; fluorescence microscopy
Description: After 4 mg/ml of a type I collagen solution was prepared, it was added to wells of a pre-cooled culture plate (manufactured by Greiner Bio-One Co., Ltd.), followed by allowing to stand at 37° C. for 30 to 60 minutes to be gelatinized. Bile duct epithelial cells suspended in a DMEM/F12 medium (manufactured by Sigma Aldrich Co. LLC) containing 10% serum (fetal bovine serum), 1×insulin-transferrin-selenium (ITS), 0.1 μM dexamethasone, 5 ng/ml epidermal growth factor (EGF), and 5 ng/ml hepatocyte growth factor (HGF) were inoculated in a 24-well plate at 5×10^4 cells/well. […] The density in the cultured region of the bile duct epithelial cells in the cultured region was measured with image analysis software (manufactured by Olympus Corporation) by using photographs taken under a microscope. […]
Fluorescein diacetate (FDA) (manufactured by Tokyo Chemical Industry Co., Ltd.) was taken up by the above-mentioned hepatic epithelioid tissue 2 weeks after overlaying Matrigel, and observation was performed with a phase-contrast microscope and a fluorescence microscope. […] FDA is taken by hepatocytes and hydrolyzed to become fluorescein that emits a fluorescence, and then is excreted into the bile canaliculus.

[2] = system: hepatic epithelioid tissue (small hepatocytes and bile duct epithelial cells); test: Uptake of bilirubin by the hepatic epithelioid tissue reconstructed ex vivo; format: cell-based, mice; settings: 10 μg/ml bilirubin, 3 to 5 days culture; tissue 2 weeks after overlaying Matrigel; Fouchet's reagent staining
[3] = system: barrier functions of the epithelial cells in the organoid; test: Release of CLF into the medium by inhibition of cell-cell adhesion (tight junction barrier) with MβCD; format: cell-based, mice
[4] = system: hepatic epithelioid tissue (small hepatocytes and bile duct epithelial cells); test: Transportation of bile acid analog CLF from hepatocytes to the bile duct; format: cell-based, mice; settings: after 6 hours; 1 month after overlaying gel
[5] = system: coculture of human CLiP and murine bile duct epithelial cells; test: CLF transport in coculture of human reprogramming hepatocytes (hCLiP) and murine BEC; format: cell-based; settings: one week after overlaying collagen gel containing 40% Matrigel
Description: In order to produce an organoid reflecting the metabolic functions of humans, coculture of human reprogramming hepatocytes and murine bile duct epithelial cells was performed. Specifically, murine bile duct epithelial cells were cultured on a collagen gel (the amount of collagen contained in the collagen gel: 4 mg/ml) for 5 days, and then CLIP was inoculated. Two days later, human recombinant oncostatin M (hOSM) (manufactured by R&D Systems Inc.) was added, and then 1 day later, a collagen gel containing 40% EHSgel (Matrigel) was overlaid to perform coculture.
(A) It can be seen that the contact surface between murine BEC (the range indicated in red) and human CLIP has been formed during the early stage of coculture (see FIG. 10A). (B) One week after overlaying a collagen gel containing EHSgel (Matrigel), CLF was added.

CC(=O)Oc1ccc2c(c1)Oc1cc(OC(C)=O)ccc1C21OC(=O)c2ccccc21 [Fluorescein diacetate]
flow of fluorescein (from FDA hydrolysed in hepatocytes) into the bile duct [1]: fluorescein has flowed into the bile duct

C=CC1=C(C)/C(=C/c2[nH]c(Cc3[nH]c(/C=C4\NC(=O)C(C)=C4C=C)c(C)c3CCC(=O)O)c(CCC(=O)O)c2C)NC1=O [bilirubin]
flow of bilirubin taken up by hepatocytes into bile duct structure [2]: flows into a bile duct structure formed by bile duct epithelial cells

Methyl beta cyclodextrin [MβCD]
concentration dependence of CLF release into the medium ([3]; 25 mM or 75 mM MβCD): release depends on the concentration of MβCD | CLF fluorescence leaked into the medium after MβCD addition ([3]; 25 mM or 75 mM MβCD vs no addition, cells 1 month after addition of EHS-gel): fluorescence was detected in the medium

cholyl lysine fluorescein [CLF]
transport to the bile duct [4]: transported to the bile duct | transport of CLF taken up by human CLiP to murine bile duct tissue [5]: transported to a murine bile duct tissue
